Tested on: 777334-354-R2-J4-PDC tumor spheroids with HUVEC/MSC, viability
Assay: Anticancer human tumor 777334-354-R2-J4-PDC patient-derived pancreatic adenocarcinoma cell line growth inhibition [GQUAD]
Conditions: for IC50: curve of first compound; for viability, T/C: stronger effect = lower value
From the text: DNA G-quadruplex Stabilizer Agents in Combinations in Complex Spheroids
A high-throughput screen of multi-cell type tumor spheroids was designed to identify active combinations of DNA G-quadruplex stabilizer agents and targeted small molecules. Complex spheroids include a stromal component modeled by human endothelial cells (HUVEC) and fibroblasts modeled by human mesenchymal stem cells (MSCs). The concentration ranges selected for each drug and investigational agent were based upon clinically achievable concentrations if the clinical Cmax of the agent was known.
Compounds. The drugs and investigational agents: pidnarulex (CX-5461; NSC782164), APTO-253 (NSC789042), BRACO-19 (NSC847499), peposertib (NSC802822), ceralasertib (NSC780249), elimusertib (NSC800525), camonsertib (NSC841442), AZD-1390 (NSC803789), olaparib (NSC753686), talazoparib (NSC767125), ART-558 (NSC835418), sotorasib (NSC818433), MRTX-1133 (NSC836407), SN-38 (NSC673596), topotecan (NSC609699), etoposide (NSC141540), doxorubicin (NSC123127), gemcitabine (NSC613327), 5-fluorouracil (NSC19893), paclitaxel (NSC125973), vemurafenib (NSC761431), panobinostat (NSC761190), R-306465 (JNJ-16241199; NSC773264), adavosertib (NSC754352), TP-3654 (NSC805149), carboplatin (NSC241240), KSQ-4279 (NSC840948), and staurosporine (NSC755774) were obtained from the National Cancer Institute (NCI) Developmental Therapeutics Program Chemical Repository (34). The FDA-approved anticancer drug set is available from the NCI Developmental Therapeutics Program. […] The stock solutions were prepared in dimethyl sulfoxide (DMSO, Sigma-Aldrich, St. Louis, MO, cat. D2650) at 800-fold the tested concentration and stored at -70 degrees C prior to their use. All drugs and investigational agents were tested over a range starting from a high concentration at or near the clinical Cmax and decreasing in half-log increments. If the clinical Cmax for an agent had not been determined, the highest concentration tested was 10 microM.
2.3 Cell Culture. All cells were maintained in an incubator at 37 degrees C and 5% CO2 with 95% humidity. The PDC lines were cultured according to standard operating procedures established by the NCI PDMR. All PDCs were thawed and cultured in Matrigel-coated flasks prepared with a working solution of 1X Ham's F-12 nutrient mix, without supplementation (Invitrogen, cat. 11765054), 100 U/mL penicillin-streptomycin (Invitrogen, cat. 15140122), and 2.5% Matrigel (Corning Inc., cat. 354248) for the first three passages. The 857933-349-R-J2-PDC line was cultured in 6C/Colon 1B media, which includes advanced DMEM/F-12 (Thermo Fisher Scientific, cat. 12634028), 10 mM HEPES (Thermo Fisher Scientific, cat. 15630080), 1X GlutaMAX supplement (Thermo Fisher Scientific, cat. 35050061), 0.1 mg/mL primocin (InvivoGen, cat. ant-pm-2), 10% defined fetal bovine serum, heat inactivated (HyClone Laboratories Inc., cat. SH30070.03HI), 50% L-WRN conditioned media (ATCC, cat. CRL-3276), 1.25 mM N-Acetyl-L-cysteine (Sigma-Aldrich, cat. A9165), 10 mM nicotinamide (Sigma-Aldrich, cat. N0636), 1X B-27 supplement (Thermo Fisher Scientific, cat. 17504044), 1X N-2 supplement (Thermo Fisher Scientific, cat. 17502048), 10 microM Y-27632 dihydrochloride (Tocris Bioscience, cat. 1254), and 50 ng/mL human EGF recombinant protein (Thermo Fisher Scientific, cat. PHG0311). The 485176-168-R4-J1-PDC line was cultured in Panc media, which includes all 6C/Colon 1B media components plus 100 ng/mL human FGF-10 (Thermo Fisher Scientific, cat. 100-26), 500 nM SB-431542 (Selleckchem, cat. S1067), and gastrin (Tocris, cat. 3006).
[…]

[1] = second compound 0.0316 µM, first compound 0.0316 µM
[2] = second compound 0.0316 µM, first compound 0.1 µM
[3] = second compound 0.0316 µM, first compound 0.316 µM
[4] = second compound 0.0316 µM, first compound 1 µM
[5] = second compound 0.0316 µM, first compound 3.16 µM
[6] = second compound 0.0316 µM, first compound 10 µM
[7] = second compound 0.1 µM, first compound 0.0316 µM
[8] = second compound 0.1 µM, first compound 0.1 µM
[9] = second compound 0.1 µM, first compound 0.316 µM
[10] = second compound 0.1 µM, first compound 1 µM
[11] = second compound 0.1 µM, first compound 3.16 µM
[12] = second compound 0.1 µM, first compound 10 µM
[13] = second compound 0.316 µM, first compound 0.0316 µM
[14] = second compound 0.316 µM, first compound 0.1 µM
[15] = second compound 0.316 µM, first compound 0.316 µM
[16] = second compound 0.316 µM, first compound 1 µM
[17] = second compound 0.316 µM, first compound 3.16 µM
[18] = second compound 0.316 µM, first compound 10 µM
[19] = second compound 1 µM, first compound 0.0316 µM
[20] = second compound 1 µM, first compound 0.1 µM
[21] = second compound 1 µM, first compound 0.316 µM
[22] = second compound 1 µM, first compound 1 µM
[23] = second compound 1 µM, first compound 3.16 µM
[24] = second compound 1 µM, first compound 10 µM
[25] = second compound 3.16 µM, first compound 0.0316 µM
[26] = second compound 3.16 µM, first compound 0.1 µM
[27] = second compound 3.16 µM, first compound 0.316 µM
[28] = second compound 3.16 µM, first compound 1 µM
[29] = second compound 3.16 µM, first compound 3.16 µM
[30] = second compound 3.16 µM, first compound 10 µM
[31] = second compound 10 µM, first compound 0.0316 µM
[32] = second compound 10 µM, first compound 0.1 µM
[33] = second compound 10 µM, first compound 0.316 µM
[34] = second compound 10 µM, first compound 1 µM
[35] = second compound 10 µM, first compound 3.16 µM
[36] = second compound 10 µM, first compound 10 µM
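Note: spheroids exposed to compounds for 7 days before readout.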

CC1COCCN1c1cc(C2(O)CC3CCC(C2)O3)c2cnn(-c3ccn[nH]3)c2n1 (centres undefined) + Cc1cnc(CNC(=O)c2c(=O)c3ccc(N4CCCN(C)CC4)nc3n3c2sc2ccccc23)cn1
IC50 (second compound 0.0316 µM): 128 nM | IC50 (second compound 0.1 µM): 144 nM | IC50 (second compound 0.316 µM): 158 nM | IC50 (second compound 1 µM): 130 nM | IC50 (second compound 3.16 µM): < 31.6 nM | IC50 (second compound 10 µM): < 31.6 nM | viability, T/C [1]: 62% | viability, T/C [2]: 46.6% | viability, T/C [3]: 45.6% | viability, T/C [4]: 37.3% | viability, T/C [5]: 32.6% | viability, T/C [6]: 21.5% | viability, T/C [7]: 65.9% | viability, T/C [8]: 46.5% | viability, T/C [9]: 46.4% | viability, T/C [10]: 34.8% | viability, T/C [11]: 31.9% | viability, T/C [12]: 18.4% | viability, T/C [13]: 54.1% | viability, T/C [14]: 55% | viability, T/C [15]: 46% | viability, T/C [16]: 37.1% | viability, T/C [17]: 30.6% | viability, T/C [18]: 16.5% | viability, T/C [19]: 59.7% | viability, T/C [20]: 46.1% | viability, T/C [21]: 45.6% | viability, T/C [22]: 39.7% | viability, T/C [23]: 26.4% | viability, T/C [24]: 15% | viability, T/C [25]: 40.8% | viability, T/C [26]: 46.1% | viability, T/C [27]: 46.3% | viability, T/C [28]: 34.2% | viability, T/C [29]: 21.4% | viability, T/C [30]: 14.9% | viability, T/C [31]: 46.8% | viability, T/C [32]: 42.8% | viability, T/C [33]: 39% | viability, T/C [34]: 29.6% | viability, T/C [35]: 18.7% | viability, T/C [36]: 11.2%

C=CCn1c(=O)c2cnc(Nc3ccc(N4CCN(C)CC4)cc3)nc2n1-c1cccc(C(C)(C)O)n1 + Cc1[nH]c2ccc(F)cc2c1-c1nc2c3cccnc3c3ncccc3c2[nH]1
IC50 (second compound 0.0316 µM): 725 nM | IC50 (second compound 0.1 µM): 869 nM | IC50 (second compound 0.316 µM): 738 nM | IC50 (second compound 1 µM): 710 nM | IC50 (second compound 3.16 µM): 31.6 nM | IC50 (second compound 10 µM): < 31.6 nM | viability, T/C [1]: 100% | viability, T/C [2]: 106% | viability, T/C [3]: 79.5% | viability, T/C [4]: 39.5% | viability, T/C [5]: 30.6% | viability, T/C [6]: 34.6% | viability, T/C [7]: 87.5% | viability, T/C [8]: 92.9% | viability, T/C [9]: 78% | viability, T/C [10]: 46.6% | viability, T/C [11]: 33.1% | viability, T/C [12]: 34.5% | viability, T/C [13]: 94.3% | viability, T/C [14]: 99.8% | viability, T/C [15]: 82.8% | viability, T/C [16]: 38.3% | viability, T/C [17]: 36.7% | viability, T/C [18]: 30.9% | viability, T/C [19]: 75.3% | viability, T/C [20]: 77.5% | viability, T/C [21]: 73.1% | viability, T/C [22]: 40.1% | viability, T/C [23]: 34% | viability, T/C [24]: 28.1% | viability, T/C [25]: 50.4% | viability, T/C [26]: 36.9% | viability, T/C [27]: 50.8% | viability, T/C [28]: 12.8% | viability, T/C [29]: 14% | viability, T/C [30]: 14.2% | viability, T/C [31]: 31.7% | viability, T/C [32]: 27.5% | viability, T/C [33]: 24.7% | viability, T/C [34]: 14.8% | viability, T/C [35]: 14.1% | viability, T/C [36]: 11.2%

From PubChem BioAssay AID2060499 (Molecular Pharmacology Branch, DTP, NCI, 2025)
